In US5869500A, “Pyridone compounds useful in treating Alzheimer's disease” (Hoffmann-La Roche Inc., priority 1996, dated 1999):

Tests used:
[1] = test system: Aβ production in HEK cells over-expressing Wild type β-APP; experiment: Aβ production inhibition, sandwich-ELISA in HEK cells which over-express Wild type β-APP (SE-WT); format: cell-based, human; conditions: for Emax: HEK293, maximum inhibition plateau, read-out: SE-WT max. inhibition %
Experimental: The effect of test substances on the inhibition of Aβ-amyloid production can be measured in the supernatant of cell cultures of β-APP expressed cells using ELISA tests or other quantitative determination methods for β-APP degradation products. Typically, 8×10^5 cells (e.g. HEK cells, which express recombinant human β-APP variants) are plated out in each well of a culture dish having 24 wells in growth media such as e.g. OPTIMEM (Gibco) and the test compound is then added. After an incubation period of 24 to 48 hours at 37° C. in a 10% CO2 atmosphere the supernatant is removed from the cell cultures and the β-APP degradation products (e.g. Aβ or β-[…]) are determined with the aid of ELISA (or sandwich ELISA) analysis or by means of quantitative immunoprecipitation (after metabolic radiolabelling of the cell proteins). Typically, 300 μl of the cell supernatant are tested according to the state of the art for ELISA tests in culture dishes having 96 wells. In the case of sandwich ELISA for Aβ, the binding antibody can be directed against the first 16 amino acids of Aβ-peptide (e.g. 6E10 Senetek, Maryland Heights, Mo.) and the detection antibody can be directed against amino acids 17-40 or 17-42 of Aβ and carries a detection system such as e.g. peroxidase. A simple ELISA test with an antibody, e.g. 22C11 (Boehringer Mannheim), can be used as the test for […]; the second antibody can be an anti-(mouse) Ig having a detection system, such as e.g. peroxidase. The peroxidase reaction can be carried out e.g. using a TMB substrate (BioRAD) and the measurements can be carried out at 650 nm using an ELISA reading apparatus. […] SE-SFAD signifies the Aβ production inhibition measured using sandwich-ELISA in HEK cells, SFAD signifies over-expressed mutated β-APP, and SE-WT signifies the Aβ production inhibition measured using sandwich-ELISA in HEK cells which over-express Wild type β-APP. The IC50 values are based on the respective plateau of maximum inhibition.

[2] = test system: Aβ production in HEK cells over-expressing mutated β-APP (SFAD); experiment: Aβ production inhibition, sandwich-ELISA in HEK cells, over-expressed mutated β-APP (SE-SFAD); format: cell-based, human; conditions: for IC50: based on the respective plateau of maximum inhibition; for Emax: read-out: SE-SFAD max. inhibition %
Outline: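 HEK cells expressing recombinant human wild-type or mutated (SFAD) β-APP treated with compound for 24 to 48 hours at 37° C, 10% CO2. IC50 based on plateau of maximum inhibition.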

[3] = Homo sapiens, HEK293, based on the respective plateau of maximum inhibition
[4] = Homo sapiens, HEK293, HEK cells
[5] = Homo sapiens, HEK293, HEK cells, maximum inhibition plateau

Compound | IC50 [1, 3] [µM] | Emax ([1]; Homo sapiens) [%] | IC50 [2, 4] [µM] | Emax [2, 5] [%] | IC50 ([1]; based on the respective plateau of maximum inhibition) [µM] | SE-WT max. inhibition % ([1]; maximum inhibition plateau) | IC50 ([2]; HEK cells) [µM] | SE-SFAD max. inhibition % ([2]; HEK cells, maximum inhibition plateau) [%]
O=C1CC[C@H](COC(=O)c2cc(-c3ccccc3)c(=O)n3ccc4ccsc4c23)N1 [Compound 3, 5-Oxo-pyrrolidin-2-(R)-yl-methyl 7-oxo-8-phenyl-7H-thieno[2,3-a]-quinolizine-10-carboxylate] | 1 | 60 | 9.5 | 30 | – | – | – | –
COCC1CCCCN1C(=O)c1cc(-c2ccccc2)c(=O)n2ccc3ccsc3c12 (stereo not shown) [Compound 50, 10-(2-Methoxymethyl-piperidine-1-carbonyl)-8-phenyl-thieno[2,3-a]-quinolizin-7-one] | 3.6 | 40 | 5.5 | 40 | – | – | – | –
CCCOC1CN(C(=O)c2cc(-c3ccccc3)c(=O)n3ccc4ccsc4c23)C1 [Compound 1, 8-Phenyl-10-(3-propoxy-azetidin-1-carbonyl)-thieno[2,3-a]quinolizin-7-one] | 4 | 75 | 2 | 65 | – | – | – | –
O=C(OCCN1CCCC1=O)c1cc(-c2ccccc2)c(=O)n2ccc3ccsc3c12 [Compound 29, 2-(2-Oxo-pyrrolidin-1-yl)-ethyl 7-oxo-8-phenyl-7H-thieno[2,3-a]-quinolizine-10-carboxylate] | 4.1 | 80 | 3 | 40 | – | – | – | –
CN1CCC[C@H]1COC(=O)c1cc(-c2ccccc2)c(=O)n2ccc3ccsc3c12 [Compound 28, 1-Methyl-pyrrolidin-2-(S)-yl-methyl 7-oxo-8-phenyl-7H-thieno[2,3-a]-quinolizine-10-carboxylate] | 2 | 100 | 9 | 100 | – | – | – | –
Cc1cc(C)n(C(=O)c2cc(-c3ccccc3)c(=O)n3ccc4ccsc4c23)n1 [Compound 45, 10-(3,5-Dimethyl-pyrazole-1-carbonyl)-8-phenyl-thieno[2,3-a]-quinolizin-7-one] | 0.5 | 30 | 0.9 | 40 | – | – | – | –
COC1CN(C(=O)c2cc(-c3ccccc3)c(=O)n3ccc4ccc(Cl)cc4c23)C1 [Compound 40, 10-Chloro-1-(3-methoxy-azetidine-1-carbonyl)-3-phenyl-pyrido-[2,1-a]isoquinolin-4-one] | 7 | 70 | 6.8 | 100 | – | – | – | –
O=C(c1cc(-c2ccccc2)c(=O)n2ccc3ccsc3c12)n1ccnc1 [Compound 52, 10-(Imidazole-1-carbonyl)-8-phenyl-thieno[2,3-a]quinolizin-7-one] | 12 | 45 | 5 | 25 | – | – | – | –
CCN(CCOC)C(=O)c1cc(-c2ccccc2)c(=O)n2ccc3ccsc3c12 [Compound 20, 7-Oxo-8-phenyl-7H-thieno[2,3-a]quinolizine-10-carboxylic acid (2-methoxy-ethyl)-ethyl-amide] | 9 | 70 | 15 | 30 | – | – | – | –
O=C(OCc1cccs1)c1cc(-c2ccccc2)c(=O)n2ccc3ccsc3c12 [Compound 55, Thiophen-2-yl-methyl 7-oxo-8-phenyl-7H-thieno[2,3-a]quinolizine-10-carboxylate] | 5 | 60 | 4 | 50 | – | – | – | –
COCCN(CCOC)C(=O)c1cc(-c2ccc(C(C)(C)C)cc2)c(=O)n2ccc3ccsc3c12 [Compound 109, 8-(4-tert-Butyl-phenyl)-7-oxo-7H-thieno[2,3-a]quinolizine-10-carboxylicacid bis-(2-methoxy-ethyl)-amide] | 0.8 | 100 | 7.7 | 100 | – | – | – | –
COCCN(C(=O)c1cc(-c2ccc(OCc3ccccc3)cc2)c(=O)n2ccc3cc(I)sc3c12)c1ccccc1 [Compound 81, 8-(4-Benzyloxy-phenyl)-2-iodo-7-oxo-7H-thieno[2,3-a]quinolizine-10-carboxylic acid (2-methoxy-ethyl)-phenyl-amide] | 1.2 | 100 | < 1 | 50 | – | – | – | –
O=C(OCCn1ccnc1)c1cc(-c2ccccc2)c(=O)n2ccc3ccsc3c12 [Compound 2, 2-Imidazol-1-yl-ethyl 7-oxo-8-phenyl-7H-thieno[2,3-a]quinolizine-10-carboxylate] | 1.2 | 70 | 10 | 50 | – | – | – | –
COc1cccc(-c2cc(C(=O)NCc3ccccc3)c3c4sccc4ccn3c2=O)c1 [Compound 116, 8-(3-Methoxy-phenyl)-7-oxo-7H-thieno[2,3-a]quinolizine-10-carboxylic acid benzyl-amide] | 1 | 60 to 80 | 0.8 | 100 | – | – | – | –
CC(C)N(CC#CCOC(=O)c1cc(-c2ccccc2)c(=O)n2ccc3ccsc3c12)C(C)C [Compound 48, 4-Diisopropylamino-but-2-ynyl 7-oxo-8-phenyl-7H-thieno[2,3-a]-quinolizine-10-carboxylate methanesulphonate] | 3.3 | 100 | 12 | 100 | – | – | – | –
COC(=O)c1cc(-c2ccccc2)c(=O)n2ccccc12 [Compound 33, Methyl 4-oxo-3-phenyl-4H-quinolizine-1-carboxylate] | 5 | 40 | 6 | 40 | – | – | – | –
CCCN(CCOC)C(=O)c1cc(-c2ccc(C(C)(C)C)cc2)c(=O)n2ccc3ccsc3c12 [Compound 108, 8-(4-tert-Butyl-phenyl)-7-oxo-7H-thieno[2,3-a]quinolizine-10-carboxylicacid (2-methoxy-ethyl)-propyl-amide] | 1 | 100 | 1.4 | 100 | – | – | – | –
O=C(OCC#CCN1CCOCC1)c1cc(-c2ccccc2)c(=O)n2ccc3ccsc3c12 [Compound 46, 4-(Morpholin-4-yl)-but-2-ynyl 7-oxo-8-phenyl-7H-thieno[2,3-a]-quinolizine-10-carboxylate] | 1 | 50 | 4 | 70 | – | – | – | –
O=C(Nc1nccs1)c1cc(-c2ccccc2)c(=O)n2ccc3ccsc3c12 [Compound 49, 7-Oxo-8-phenyl-7H-thieno[2,3-a]quinolizine-10-carboxylic acid thiazol-2-yl-amide] | 0.5 | 50 | 0.7 | 50 | – | – | – | –
COC(=O)c1cc(-c2ccc(C(C)(C)C)cc2)c(=O)n2ccc3ccsc3c12 [Compound 106, Methyl 8-(4-tert-butyl-phenyl)-7-oxo-7H-thieno[2,3-a]quinolizine-10-carboxylate] | 0.8 | 95 | 2.3 | 85 | – | – | – | –
8-(2-Benzoylamino-phenyl)-7-oxo-8-p-tolyl-7H-thieno[2,3-a]-quinolizine-10- carboxylic acid (2-methoxy-ethyl)-phenyl-amide [Compound 152] | – | – | – | – | 1.5 | 50-90% | 1.4 | 100
CCOC1CCN(C(=O)c2cc(-c3ccccc3)c(=O)n3ccc4ccsc4c23)C1 (stereo not shown) [Compound 9, 10-(3-Ethoxy-pyrrolidine-1-carbonyl)-8-phenyl-thieno[2,3-a]quinolizin-7-one] | 40 | 50 | 5 | 35 | – | – | – | –
COCCCN(C)C(=O)c1cc(-c2ccccc2)c(=O)n2ccc3ccsc3c12 [Compound 18, 7-Oxo-8-phenyl-7H-thieno[2,3-a]quinolizine-10-carboxylic acid (3-methoxy-propyl)-methyl-amide] | 7 | 40 | 4 | 30 | – | – | – | –
CON(C)C(=O)c1cc(-c2ccccc2)c(=O)n2ccc3ccsc3c12 [Compound 54, 7--Oxo-8-phenyl-7H-thieno[2,3-a]quinolizine-10-carboxylic acid methoxy-methyl-amide] | 3 | 40 | 6 | 30 | – | – | – | –
O=C(OCc1ccccn1)c1cc(-c2ccccc2)c(=O)n2ccc3ccsc3c12 [Compound 6, Pyridin-2-yl-methyl 7-oxo-8-phenyl-7H-thieno[2,3-a]quinolizine-10-carboxylate] | 0.6 | 75 | 3 | 50 | – | – | – | –
